The test system of assay [1] is PC3 prostate cancer cells. Nature of the assay: Binding of biotinylated peptides to PC3 cells, HRP-avidin detection. The arrangement: species or system human. As to conditions: chlorotoxin binding assay, FIG. 11. As to the method:
To identify core binding site sequences of chlorotoxin, twenty-seven overlapping 10-mers derived from SEQ 1) NO: 1 were synthesized, starting from the C-terminus of the peptide as indicated in FIG. 7.
Binding of the 10-mer peptides to PC3 prostate cancer cells in vitro was measured by incubating cultured PC3 cells with individual peptides. Binding was detected and quantified by incubating the peptide exposed cells with HRP-avidin using a commercial kit according to manufacturer's instructions.
(SEQ ID NO: 10) sequentially as depicted in Table 5.
In order to compare binding of the short scorpion toxins, the regions homologous to peptide 21 of small toxin and probable toxin LQH-8/6 were synthesized and biotinylated for analysis in the chlorotoxin binding assay. (See Table 6 for amino acid sequences of the peptides).

In another assay the test system is D54MG Glioblastoma cells. The note with it: 24 h. Here is the method:
The purpose of this experiment was to determine if the proliferation D54MG Glioblastoma cells, as measured by ^3H-thymidine uptake, is effected by Peptide 21, a segment of the full chlorotoxin sequence. The sequence of peptide 21 and its relation to chlorotoxin is shown in the sequence below:
D54MG cells were plated in a 24 well plate at 100,000 cells/ml/well using five rows of four wells for each concentration. The cells were allowed to adhere in normal media for twenty-four hours at 37° C. and 5% carbon dioxide. TM-701 was diluted to a […] stock solution and added to each row at the concentrations of 0, 20, 80, 160 and 320 nM.
The cells and peptide 21 were allowed to incubate for 24 hours at 37° C. and 5% carbon dioxide. After twenty-four hours, the cells were rinsed two times with warm PBS. Normal media was added back to the cells at 1 ml/well. One μCi of ^3H-thymidine was added to each well (1 μl of 1 mCi/ml ^3H-thymidine to each well). The plate was incubated for two hours at 37° C. The media and thymidine were removed and the wells were rinsed with ice-cold phosphate-buffered saline three times. To each well was added 1 ml of 0.3 N NaOH. The plate was incubated in the 37° C. incubator for thirty minutes. Each well of 0.3 N NaOH was pipetted up and down three to four times and removed from the plate and the solution was placed in scintillation vials for counting. Scintillation fluid at four times the amount of sample was added to the vials (4 ml). Each vial was counted on the scintillation counter for one minute.

Read-outs that look alike come from different tables or passages of the source. Ends that are not written are not given here. * marks the point of attachment. Biotin = O=C1N[C@H]2[C@H](CS[C@H]2CCCCC(=O)*)N1

Take “negative peptide (GKCYGPQCLC; Chlorotoxin; listed as Leiurus quinquestriatus) [reference compound]”: in assay [1], the “binding in PC3 human prostate cancer cells” value (shortened to “binding”) is listed as 110 % of background levels.

For the substance Biotin-TTDHQMARKS [peptide 21], the “binding” value in assay [1] is given as 232.50 % of background levels. The “uptake of 3H-thymidine, trend over 20 to 320 nM” value in the assay on D54MG Glioblastoma cells (FIG. 12) is on record as “decreases in a does-dependent manner”. The “3H-Thymidine uptake ± SD” value with D54MG Glioblastoma cells (peptide 21 at 20 nM) is 7795 ± 634 CPM; in the assay on D54MG Glioblastoma cells (peptide 21 at 80 nM) it was 7412 ± 630 CPM; in the assay on D54MG Glioblastoma cells (peptide 21 at 160 nM), 6983 ± 329 CPM; with D54MG Glioblastoma cells (peptide 21 at 320 nM), 5782 ± 886 CPM.

On to “TTDQQMTKK [21LQ, region of probable toxin LQH-8/6 homologous to peptide 21, synthesized and biotinylated]”, for which the “binding” value in assay [1] is recorded as 242.32 % of background levels.

“TTDPQMSKK [21ST, region of small toxin homologous to peptide 21, synthesized and biotinylated]”: the “binding” value in assay [1] was 225.26 % of background levels.

(Values after patent US20060166892A1, “Treatment of cell proliferative disorders with chlorotoxin” (priority 2002, published 2006).)
